Measurements as given in the NIST ThermoML archive (doi:10.1016/j.jct.2015.12.027).

Experiments:
[1] = xn = mol fraction of the nth substance listed; details: 81.5 kPa, Liquid, Vibrating tube method
[2] = refractive index (Na D-line) (dimensionless); xn = mol fraction of the nth substance listed; details: 81.5 kPa, Liquid, Standard Abbe refractometry

ClCCCl [1,2-dichloroethane] + c1ccccc1
Details | mass density, 293.15 K [kg/m3] | mass density, 303.15 K [kg/m3] | mass density, 313.15 K [kg/m3] | mass density, 323.15 K [kg/m3] | mass density, 333.15 K [kg/m3] | refractive index, 293.15 K | refractive index, 303.15 K | refractive index, 313.15 K | refractive index, 323.15 K | refractive index, 333.15 K
[1], x1 = 0.1002 | 911.76 | 900.68 | 889.51 | 878.27 | 866.86 | – | – | – | – | –
[1], x1 = 0.207 | 947.74 | 936.23 | 924.62 | 912.92 | 901.08 | – | – | – | – | –
[1], x1 = 0.3043 | 981.38 | 969.5 | 957.49 | 945.42 | 933.17 | – | – | – | – | –
[1], x1 = 0.4032 | 1016.56 | 1004.31 | 991.92 | 979.41 | 966.77 | – | – | – | – | –
[1], x1 = 0.5005 | 1052.14 | 1039.52 | 1026.72 | 1013.82 | 1000.75 | – | – | – | – | –
[1], x1 = 0.5975 | 1088.72 | 1075.72 | 1062.52 | 1049.18 | 1035.66 | – | – | – | – | –
[1], x1 = 0.7235 | 1137.85 | 1124.32 | 1110.59 | 1096.67 | 1082.64 | – | – | – | – | –
[1], x1 = 0.8005 | 1168.91 | 1155.04 | 1140.95 | 1126.76 | 1112.37 | – | – | – | – | –
[1], x1 = 0.8918 | 1206.83 | 1192.59 | 1178.02 | 1163.49 | 1148.78 | – | – | – | – | –
[1], x1 = 1 | 1252.82 | 1238.27 | 1223.53 | 1208.61 | 1193.61 | – | – | – | – | –
[2], x1 = 0.1002 | – | – | – | – | – | 1.49506 | 1.48919 | 1.48273 | 1.477 | 1.47091
[2], x1 = 0.207 | – | – | – | – | – | 1.48849 | 1.48273 | 1.47644 | 1.4708 | 1.46486
[2], x1 = 0.3043 | – | – | – | – | – | 1.48263 | 1.47694 | 1.47079 | 1.46522 | 1.45939
[2], x1 = 0.4032 | – | – | – | – | – | 1.47684 | 1.47123 | 1.46522 | 1.45971 | 1.45398
[2], x1 = 0.5005 | – | – | – | – | – | 1.47135 | 1.46581 | 1.45994 | 1.45449 | 1.44884
[2], x1 = 0.5975 | – | – | – | – | – | 1.46605 | 1.46058 | 1.45484 | 1.44943 | 1.44387
[2], x1 = 0.7235 | – | – | – | – | – | 1.45935 | 1.45396 | 1.44838 | 1.44302 | 1.43756
[2], x1 = 0.8005 | – | – | – | – | – | 1.45531 | 1.44995 | 1.44445 | 1.43912 | 1.43372
[2], x1 = 0.8918 | – | – | – | – | – | 1.4505 | 1.44519 | 1.43979 | 1.43449 | 1.42916
[2], x1 = 1 | – | – | – | – | – | 1.44472 | 1.43948 | 1.43423 | 1.42897 | 1.42373
